Experimental data from patent US20250221966A1, “RXFP1 AGONISTS” (BRISTOL-MYERS SQUIBB COMPANY, priority 2021, published 2025).

target: T1, human RXFP1 (Homo sapiens, UniProt Q9HBX9); assay: RXFP1 cAMP assay (hRXFP1 HEK293 cAMP assay, HTRF); format: cell-based; details: HEK293 cells stably expressing human RXFP1, 30 min at room temperature, read-out: cAMP hRXFP1 HEK293 Assay EC50
T1 construct: expressed in transfected cells
T1 sequence (Q9HBX9 1-757): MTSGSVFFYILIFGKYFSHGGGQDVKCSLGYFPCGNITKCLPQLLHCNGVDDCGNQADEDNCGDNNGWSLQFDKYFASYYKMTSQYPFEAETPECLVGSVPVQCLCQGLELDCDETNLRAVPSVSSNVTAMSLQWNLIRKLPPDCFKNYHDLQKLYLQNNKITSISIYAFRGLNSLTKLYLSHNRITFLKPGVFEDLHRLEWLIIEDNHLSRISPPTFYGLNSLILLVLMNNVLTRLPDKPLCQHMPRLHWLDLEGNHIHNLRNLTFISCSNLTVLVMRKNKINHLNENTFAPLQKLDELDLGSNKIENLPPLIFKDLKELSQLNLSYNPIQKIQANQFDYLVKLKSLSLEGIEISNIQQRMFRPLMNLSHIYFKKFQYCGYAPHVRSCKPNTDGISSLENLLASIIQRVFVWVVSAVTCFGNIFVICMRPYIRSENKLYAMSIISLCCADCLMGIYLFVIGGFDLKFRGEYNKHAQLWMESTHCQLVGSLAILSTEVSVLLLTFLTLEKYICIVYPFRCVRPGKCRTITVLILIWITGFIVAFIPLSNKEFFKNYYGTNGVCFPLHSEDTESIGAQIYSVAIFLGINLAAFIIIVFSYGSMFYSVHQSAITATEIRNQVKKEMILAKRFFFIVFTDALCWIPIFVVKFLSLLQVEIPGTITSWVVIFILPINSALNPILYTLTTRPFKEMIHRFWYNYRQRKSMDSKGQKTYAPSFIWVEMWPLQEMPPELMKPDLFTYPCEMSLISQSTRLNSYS
Method in brief: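 Potency and activity come from a four-parameter logistic fit of cAMP against compound concentration, tested from 0.010 nM up to 50 μM. The assay uses HEK293 cells stably expressing human RXFP1, incubated 30 min at ambient temperature with phosphodiesterase inhibitor IBMX present.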

Row | EC50 [µM] | Compound
1 | 0.005 | COc1ccc(-c2ccc(C(=O)NCC(=O)O)cc2F)cc1C(=O)N[C@@H]1C2CCC(/C2=C/c2ccccc2)[C@@H]1C(=O)Nc1ccc(F)c(C(F)(F)F)c1 (stereo partly shown) [compound 194]
2 | 0.33 | COc1ccc(-c2ccncc2OC)cc1C(=O)N[C@H]1[C@@H](C(=O)Nc2ccc(F)c(C(F)(F)F)c2)[C@H]2CC[C@@H]1C2=C(C)C [compound 89]
3 | 0.054 | COc1ccc(C2=NOC3CC(F)CC23)cc1C(=O)N[C@H]1[C@@H](C(=O)Nc2ccc(F)c(C(F)(F)F)c2)[C@H]2CC[C@@H]1/C2=C\C1CC1 (stereo partly drawn) [Example 427, (1R,2S,3R,4R,Z)-7-(cyclopropylmethylene)-N-(4-fluoro-3-(trifluoromethyl)phenyl)-3-(5-(5-fluoro-3a,5,6,6a-tetrahydro-4H-cyclopenta[d]isoxazol-3-yl)-2-methoxybenzamido)bicyclo[2.2.1]heptane-2-carboxamide]
4 | 0.0033 | COc1ccc(C2=NOC3CC(C)(CO)CC23)cc1C(=O)N[C@H]1[C@@H](C(=O)Nc2ccc(F)c(C(F)(F)F)c2)[C@H]2CC[C@@H]1/C2=C\C1CCCC1 (stereo partly shown) [compound 748]
5 | 0.52 | COc1cc(F)c(F)cc1C(=O)N[C@@H]1C2CCC(/C2=C/C=C/c2ccccc2)[C@@H]1C(=O)Nc1ccc(F)c(C(F)(F)F)c1 (stereo partly shown) [compound 64]
6 | 0.0014 | COc1c(F)cc(C2=NOC3CC(CO)CC23)cc1C(=O)N[C@H]1[C@@H](C(=O)N[C@H](C)C2(C(F)(F)F)CC2)[C@H]2CC[C@@H]1/C2=C\C1CC1 (stereo partly shown) [compound 869]
7 | 0.0025 | COc1c(F)cc(C2=NOC(C)(CO)C2)cc1C(=O)N[C@H]1[C@@H](C(=O)N[C@H](C)C2(C)CC2)[C@H]2CC[C@@H]1/C2=C\C1CC1 (stereo partly shown) [compound 744]
8 | 0.735 | COc1ccc(C2=NOC3CN(CCO)CC23)cc1C(=O)N[C@H]1[C@@H](C(=O)Nc2ccc(F)c(C(F)(F)F)c2)[C@H]2CC[C@@H]1/C2=C\C1CC1 (single isomer, unassigned) [compound 691]
9 | 0.25 | COc1cc(F)c(F)cc1C(=O)N[C@@H]1C2CCC(/C2=C2\CCc3ccccc32)[C@@H]1C(=O)Nc1ccc(F)c(C(F)(F)F)c1 (stereo partly shown) [compound 72]
10 | 0.0165 | COc1ccc(C2=NOC3COCC23)c(F)c1C(=O)N[C@H]1[C@@H](C(=O)Nc2ccc(F)c(C(F)(F)F)c2)[C@H]2CC[C@@H]1/C2=C\C1CC1 (single isomer, unassigned) [compound 513]
11 | 0.0049 | COc1ccc(C2=NOC3COCC23)cc1C(=O)N[C@H]1[C@@H](C(=O)Nc2ccc(F)c(C(F)(F)F)c2)[C@H]2CC[C@@H]1/C2=C\c1csc(C)n1 (stereo partly shown) [compound 806]
12 | 0.0153 | COc1ccc(C2=NOC3(C2)CC(CO)C3)cc1C(=O)N[C@H]1[C@@H](C(=O)Nc2ccc(F)c(C(F)(F)F)c2)[C@H]2CC[C@@H]1/C2=C\C1CC1 (stereo partly shown) [Example 511]
13 | 0.211 | COc1ccc(-c2cc(C(O)C(=O)O)ccc2F)cc1C(=O)NC1C2CCC(/C2=C/C2CCN(Cc3ccc(Cl)cc3)C2)C1C(=O)Nc1ccc(F)c(C(F)(F)F)c1 (stereo not shown) [compound 357]
14 | 0.012 | COc1ccc(N2CCCS2(=O)=O)cc1C(=O)N[C@@H]1C2CCC(/C2=C/C2CC2)[C@@H]1C(=O)Nc1ccc(F)c(C(F)(F)F)c1 (stereo partly shown) [compound 372]
15 | 0.0012 | COc1ccc(C2=NO[C@H]3CC(CO)C[C@@H]23)cc1C(=O)N[C@H]1[C@@H](C(=O)Nc2ccc(F)c(C(F)(F)F)c2)[C@H]2CC[C@@H]1/C2=C\CCF (stereo partly shown) [compound 814]
16 | 0.21 | COc1cc(F)c(F)cc1C(=O)N[C@@H]1C2CCC(/C2=C/c2ccco2)[C@@H]1C(=O)Nc1ccc(F)c(C(F)(F)F)c1 (stereo partly shown) [compound 123]
17 | 0.04 | CNC(=O)c1ccc(F)c(-c2ccc(OC)c(C(=O)N[C@@H]3C4CCC(/C4=C/c4cnoc4)[C@@H]3C(=O)Nc3ccc(F)c(C(F)(F)F)c3)c2)c1 (stereo partly shown) [compound 165]
18 | 0.005 | COc1ccc(C2=NO[C@@H]3[C@@H](O)CCN23)cc1C(=O)N[C@H]1[C@@H](C(=O)Nc2ccc(F)c(C(F)(F)F)c2)[C@H]2CC[C@@H]1/C2=C\C1CC1 [compound 857]
19 | 1.71 | COc1ccc(-c2cc(C(=O)O)ccc2F)cc1C(=O)N[C@@H]1C2CCC(/C2=C/C2CC2)[C@@H]1C(=O)NC1CC(F)(F)C1 (stereo partly shown) [compound 304]
20 | 0.042 | COc1ccc(C2=NOC(CCO)C2)cc1C(=O)N[C@@H]1C2CCC(/C2=C/C2CC2)[C@@H]1C(=O)Nc1ccc(F)c(C(F)(F)F)c1 (stereo partly shown) [compound 399]

Row | EC50 [µM] | Compound
21 | 0.156 | COc1ccc(C2=NOC(C3(O)CCCC3)C2)cc1C(=O)N[C@H]1[C@@H](C(=O)Nc2ccc(F)c(C(F)(F)F)c2)[C@H]2CC[C@@H]1/C2=C\C1CC1 (single isomer, unassigned) [compound 619]
22 | 0.073 | COc1ccc(C2=NOC(CC(=O)O)C2)cc1C(=O)N[C@@H]1C2CCC(/C2=C/C2CCC2)[C@@H]1C(=O)Nc1ccc(F)c(C(F)(F)F)c1 (stereo partly shown) [compound 393]
23 | 0.0076 | COc1ccc(-c2cc(C3=NOC4COCC34)ccc2F)cc1C(=O)N[C@H]1[C@@H](C(=O)Nc2ccc(F)c(C(F)(F)F)c2)[C@H]2CC[C@@H]1/C2=C\C1CC1 (stereo partly shown) [compound 911]
24 | 0.176 | COc1ccc(N2CC[C@H](O)C2=O)cc1C(=O)N[C@H]1[C@@H](C(=O)Nc2ccc(F)c(C(F)(F)F)c2)[C@H]2CC[C@@H]1/C2=C\C1CC1 [compound 627]
25 | 0.024 | COc1ccc(C2=NOC3CN(C(=O)OC(C)(C)C)CC23)cc1C(=O)N[C@H]1[C@@H](C(=O)Nc2ccc(F)c(C(F)(F)F)c2)[C@H]2CC[C@@H]1/C2=C\C1CC1 (mixture of isomers) [Example 434, tert-butyl 3-(3-(((1R,2R,3S,4R,Z)-7-(cyclopropylmethylene)-3-((4-fluoro-3-(trifluoromethyl)phenyl)carbamoyl)bicyclo[2.2.1]heptan-2-yl)carbamoyl)-4-methoxyphenyl)-3a,4,6,6a-tetrahydro-5H-pyrrolo[3,4-d]isoxazole-5-carboxylate]
26 | 0.088 | COc1cc(F)c(F)cc1C(=O)N[C@@H]1C2CCC(/C2=C/c2cnoc2)[C@@H]1C(=O)Nc1ccc(F)c(C(F)(F)F)c1 (stereo partly shown) [compound 39]
27 | 0.002 | COc1ccc(-c2cc(C(OC(=O)Nc3ccccc3F)C(F)(F)F)ccc2F)cc1C(=O)N[C@@H]1C2CCC(/C2=C/C2CC2)[C@@H]1C(=O)Nc1ccc(F)c(C(F)(F)F)c1 (stereo partly shown) [compound 223]
28 | 0.0024 | COc1ccc(-c2cc([C@H](O)C(F)(F)F)ccc2F)cc1C(=O)N[C@H]1[C@@H](C(=O)Nc2ccc(F)c(C(F)(F)F)c2)[C@H]2CC[C@@H]1/C2=C\C1CCCC1 [compound 920]
29 | 0.091 | O=C(O)c1ccc(F)c(-c2ccc(OCCO)c(C(=O)N[C@@H]3C4CCC(/C4=C/C(F)(F)F)[C@@H]3C(=O)Nc3ccc(F)c(C(F)(F)F)c3)c2)c1 (stereo partly shown) [compound 321]
30 | 0.057 | COc1ccc(-c2cc(CO)ccc2F)cc1C(=O)N[C@@H]1C2CCC(/C2=C/c2cnoc2)[C@@H]1C(=O)Nc1ccc(F)c(C(F)(F)F)c1 (stereo partly shown) [compound 176]
31 | 0.0044 | COc1ccc(C2=NO[C@H]3COC[C@@H]23)cc1C(=O)N[C@H]1[C@@H](C(=O)Nc2ccc(F)c(C(F)(F)F)c2)[C@H]2CC[C@@H]1/C2=C\CCC1CC1 [compound 839]
32 | 0.108 | COc1ccc(C2CCN(CC(C)(C)O)C2)cc1C(=O)N[C@@H]1C2CCC(C2=CC2CC2)[C@@H]1C(=O)Nc1ccc(F)c(C(F)(F)F)c1 (stereo partly shown) [compound 601]
33 | 1.67 | COc1ccc([C@@]2(O)CO[C@@H]3[C@@H](O)CO[C@@H]32)cc1C(=O)N[C@H]1[C@@H](C(=O)Nc2ccc(F)c(C(F)(F)F)c2)[C@H]2CC[C@@H]1/C2=C\C(F)(F)F [compound 713]
34 | 2.49 | O=C(N[C@H]1[C@@H](C(=O)Nc2ccc(F)c(C(F)(F)F)c2)[C@H]2CC[C@@H]1/C2=C\C1CC1)c1cccc(C2=NOC3COCC23)c1 (single isomer, unassigned) [compound 719]
35 | 0.0006 | COc1c(F)cc(C2=NOC3CC(CO)CC23)cc1C(=O)N[C@H]1[C@@H](C(=O)N[C@H](C)C2(C)CC2)[C@H]2CC[C@@H]1/C2=C\C1CCCC1 (stereo partly shown) [compound 811]
36 | 0.019 | COc1cc(F)c(F)cc1C(=O)N[C@@H]1C2CCC(/C2=C/c2ccsc2)[C@@H]1C(=O)Nc1ccc(F)c(C(F)(F)F)c1 (stereo partly shown) [compound 36]
37 | 3.18 | COc1ccc(-c2cc(C(=O)O)ccc2F)cc1C(=O)N[C@@H]1C2CCC(/C2=C/C2CC2)[C@@H]1C(=O)NCc1cccc(C(F)(F)F)c1 (stereo partly shown) [compound 264]
38 | 0.007 | COc1ccc(-c2cc(C(NC(=O)COc3ccccc3)C(=O)O)ccc2F)cc1C(=O)N[C@@H]1C2CCC(/C2=C/C(F)(F)F)[C@@H]1C(=O)Nc1ccc(F)c(C(F)(F)F)c1 (stereo partly shown) [compound 244]
39 | 0.0012 | COc1ccc(C2=NOC3CC(C#N)CC23)cc1C(=O)N[C@H]1[C@@H](C(=O)N[C@H](C)C2(C)CC2)[C@H]2CC[C@@H]1/C2=C\C1CC1 (stereo partly shown) [compound 760]
40 | 0.0016 | COc1ccc(-c2cc([C@H](OC(=O)NC3CC3)C(F)(F)F)ccc2F)cc1C(=O)N[C@H]1[C@@H](C(=O)Nc2ccc(F)c(C(F)(F)F)c2)[C@H]2CC[C@@H]1/C2=C\CC(C)C [compound 929]
